pEC50: −log10 of the molar value.
Columns and labels:
[1] = molecular target: CB2 receptor mutant W5.43(194)Y (Homo sapiens, UniProt P34972, W194Y); type: binding; conditions: W5.43(194)Y vs CB2 WT
[2] = molecular target: CB2 W194Y mutant receptor in HEK293 cells (Homo sapiens, UniProt P34972, W194Y); type: cell-based
[3] = molecular target: CB2 W194A mutant receptor in HEK293 cells (Homo sapiens, UniProt P34972, W194A); type: cell-based
[4] = molecular target: CB2 WT receptor in HEK293 cells (Homo sapiens, UniProt P34972); type: cell-based
[5] = molecular target: CB2 W194F mutant receptor in HEK293 cells (Homo sapiens, UniProt P34972, W194F); type: cell-based
CB1 W5.43(280)A [6] = conditions: cited from earlier work
CB1 W5.43(280)A [7] = conditions: cited from earlier work; remark: listed apart in the source

CB2 receptor mutant W5.43(194)Y, sequence (P34972 whole entry W194Y): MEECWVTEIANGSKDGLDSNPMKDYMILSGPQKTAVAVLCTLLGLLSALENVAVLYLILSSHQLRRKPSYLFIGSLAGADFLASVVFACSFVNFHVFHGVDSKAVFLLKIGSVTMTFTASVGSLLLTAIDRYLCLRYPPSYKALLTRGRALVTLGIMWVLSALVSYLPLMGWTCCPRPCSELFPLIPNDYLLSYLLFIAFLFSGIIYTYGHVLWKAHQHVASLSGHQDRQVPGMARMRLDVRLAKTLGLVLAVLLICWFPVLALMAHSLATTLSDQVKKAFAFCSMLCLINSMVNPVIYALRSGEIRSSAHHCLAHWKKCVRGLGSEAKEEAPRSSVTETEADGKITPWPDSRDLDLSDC
CB2 W194F mutant receptor in HEK293 cells, sequence (P34972 whole entry W194F): as the sequence (P34972 whole entry W194Y) above, with Y194F counted along it
CB2 WT receptor in HEK293 cells, sequence (P34972 whole entry): as the sequence (P34972 whole entry W194Y) above, with Y194W counted along it
CB2 W194Y mutant receptor in HEK293 cells, sequence (P34972 whole entry W194Y): as the sequence (P34972 whole entry W194Y) above
CB2 W194A mutant receptor in HEK293 cells, sequence (P34972 whole entry W194A): as the sequence (P34972 whole entry W194Y) above, with Y194A counted along it

For CCCCCCC(C)(C)c1ccc([C@@H]2C[C@H](O)CC[C@H]2CCCO)c(O)c1 [CP55940], the “Reduction of binding affinity by W5.43(194)Y mutation compared with wild-type” value [1] was “no effect”.

In the case of C=C[C@@]1(C)CC(=O)[C@]2(O)[C@@]3(C)[C@@H](O)CCC(C)(C)[C@@H]3[C@H](O)[C@H](OC(C)=O)[C@@]2(C)O1 [Forskolin, forskolin], the pEC50 [2] was 5.69, the pEC50 [3] was 5.62 and the pEC50 [4] was 5.88. For the same molecule, the pEC50 [5] was 5.74.

In the case of Cc1c(C(=O)c2cccc3ccccc23)c2cccc3c2n1[C@H](CN1CCOCC1)CO3 [WIN55212-2], the “Reduction of binding by CB1 W5.43(280)A mutation” value (CB1 W5.43(280)A [6]) is given as 16.8 fold and the “Reduction of WIN55212-2 stimulated GTPγS binding by CB1 W5.43(280)A mutation” value (CB1 W5.43(280)A [7]) is given as 245 fold.

In the case of SR144528, the “Reduction of binding affinity by W5.43(194)Y mutation compared with wild-type” value [1] was 5 fold.
